Measured values: ChEMBL document CHEMBL5661976 (Cancer Res, 2007)

Tests used:
[1] = molecular target: Receptor tyrosine-protein kinase erbB-2 (Mus musculus, UniProt P70424); assay: Inhibition of ERBB2 expressed in mouse NIH3T3 cells; assay type: cell-based
[2] = molecular target: AMP-activated protein kinase, AMPK; assay: Inhibition of recombinant AMPK (unknown origin); assay type: protein-complex assay, Homo sapiens
[3] = molecular target: Serine/threonine-protein kinase Chk1 (Homo sapiens, UniProt O14757); assay: Inhibition of recombinant CHK1 (unknown origin)
Casein kinase I = assay: Inhibition of recombinant CK1 (unknown origin); assay type: protein assay, Homo sapiens
Casein kinase 2 = Casein kinase 2 (Homo sapiens, UniProt P67870+P68400+P19784+Q8NEV1); assay: Inhibition of recombinant CK2 (unknown origin); assay type: protein assay
[4] = molecular target: Tyrosine-protein kinase CSK (Homo sapiens, UniProt P41240); assay: Inhibition of recombinant CSK (unknown origin)
[5] = molecular target: Dual specificity tyrosine-phosphorylation-regulated kinase 1A (Homo sapiens, UniProt Q13627); assay: Inhibition of recombinant DYRK1a (unknown origin)
[6] = molecular target: Glycogen synthase kinase-3 beta (Homo sapiens, UniProt P49841); assay: Inhibition of recombinant GSK3b (unknown origin)
[7] = molecular target: Mitogen-activated protein kinase 8 (Homo sapiens, UniProt P45983); assay: Inhibition of recombinant SAPK1c (unknown origin)
[8] = Inhibition of recombinant MAPK2/ERK2 (unknown origin); design: species or system Homo sapiens
[9] = molecular target: Ribosomal protein S6 kinase alpha-1 (Homo sapiens, UniProt Q15418); assay: Inhibition of recombinant MAPKAP-K1a (unknown origin)
[10] = molecular target: MAP kinase-activated protein kinase 2 (Homo sapiens, UniProt P49137); assay: Inhibition of recombinant MAPKAP-K2 (unknown origin)
[11] = molecular target: Ribosomal protein S6 kinase alpha-5 (Homo sapiens, UniProt O75582); assay: Inhibition of recombinant MSK1 (unknown origin)
[12] = molecular target: Serine/threonine-protein kinase Nek6 (Homo sapiens, UniProt Q9HC98); assay: Inhibition of recombinant NEK6 (unknown origin)
[13] = molecular target: Serine/threonine-protein kinase Nek2 (Homo sapiens, UniProt P51955); assay: Inhibition of recombinant NEK2a (unknown origin)
[14] = Inhibition of recombinant PDGF (unknown origin); design: species or system Homo sapiens
[15] = Inhibition of recombinant PKB delta ph mutant (unknown origin); design: species or system Homo sapiens
[16] = molecular target: Protein kinase C alpha type (Homo sapiens, UniProt P17252); assay: Inhibition of recombinant PKCa (unknown origin)
[17] = molecular target: MAP kinase-activated protein kinase 5 (Homo sapiens, UniProt Q8IW41); assay: Inhibition of recombinant PRAK (unknown origin)
[18] = Inhibition of recombinant p70S6K (unknown origin); design: species or system Homo sapiens
[19] = molecular target: Rho-associated protein kinase 2 (Homo sapiens, UniProt O75116); assay: Inhibition of recombinant ROCK-II (unknown origin)
[20] = molecular target: Mitogen-activated protein kinase 14 (Homo sapiens, UniProt Q16539); assay: Inhibition of recombinant SAPK2a/p38 (unknown origin)
[21] = molecular target: Mitogen-activated protein kinase 11 (Homo sapiens, UniProt Q15759); assay: Inhibition of recombinant SAPK2b/p38beta2 (unknown origin)
[22] = molecular target: Mitogen-activated protein kinase 12 (Homo sapiens, UniProt P53778); assay: Inhibition of recombinant SAPK3/p38gamma (unknown origin)
[23] = molecular target: Mitogen-activated protein kinase 13 (Homo sapiens, UniProt O15264); assay: Inhibition of recombinant SAPK4/p38delta (unknown origin)
[24] = molecular target: Serine/threonine-protein kinase Sgk1 (Homo sapiens, UniProt O00141); assay: Inhibition of recombinant SGK (unknown origin)
Wee1-like protein kinase = Wee1-like protein kinase (Homo sapiens, UniProt P30291); assay: Inhibition of recombinant Wee1 (unknown origin)
[25] = Inhibition of recombinant Akt (unknown origin); design: species or system Homo sapiens
[26] = Inhibition of recombinant Bir Kinase (unknown origin); design: species or system Homo sapiens
[27] = Inhibition of recombinant CDK2/Cyclin A (unknown origin); design: species or system Homo sapiens
[28] = molecular target: Cyclin-dependent kinase 4/cyclin D (Homo sapiens, UniProt P11802); assay: Inhibition of recombinant CDK4/Cyclin D (unknown origin); assay type: protein-complex assay
[29] = molecular target: Tyrosine-protein kinase Fes/Fps (Homo sapiens, UniProt P07332); assay: Inhibition of recombinant FES (unknown origin)
[30] = molecular target: Insulin-like growth factor 1 receptor (Homo sapiens, UniProt P08069); assay: Inhibition of recombinant IGF1R (unknown origin)
[31] = molecular target: Dual specificity mitogen-activated protein kinase kinase 1 (Homo sapiens, UniProt Q02750); assay: Inhibition of recombinant MEK1 (unknown origin)
[32] = molecular target: cAMP-dependent protein kinase (PKA) (Homo sapiens, UniProt P22694+P17612+P22612); assay: Inhibition of recombinant PKA (unknown origin); assay type: protein assay
A549 = assay: cells; assay type: functional, cell-based; settings: Homo sapiens, A549, 72 h
Description: Antiproliferative activity against human A549 cells harboring K-ras G12S mutant assessed as inhibition of cell growth incubated for 72 hrs by MTS assay

NCI-H441 = assay: cells; assay type: functional, cell-based; settings: Homo sapiens, NCI-H441, 72 h
Description: Antiproliferative activity against human NCI-H441 cells harboring K-ras G12V mutant assessed as inhibition of cell growth incubated for 72 hrs by MTS assay

H322 = assay: cells; assay type: functional, cell-based; settings: Homo sapiens, NCI-H322, 72 h
Description: Antiproliferative activity against human H322 cells assessed as inhibition of cell growth incubated for 72 hrs by MTS assay

Calu-3 = assay: cells; assay type: functional, cell-based; settings: Homo sapiens, Calu-3, 72 h
Description: Antiproliferative activity against human Calu-3 cells overexpressing ERBB2 assessed as inhibition of cell growth incubated for 72 hrs by MTS assay

cells = assay type: functional, cell-based; settings: Homo sapiens, NCI-H1819, 72 h
Description: Antiproliferative activity against human NCI-H1819 cells overexpressing ERBB2 assessed as inhibition of cell growth incubated for 72 hrs by MTS assay

Chain of MAP kinase-activated protein kinase 2 (P49137 whole entry): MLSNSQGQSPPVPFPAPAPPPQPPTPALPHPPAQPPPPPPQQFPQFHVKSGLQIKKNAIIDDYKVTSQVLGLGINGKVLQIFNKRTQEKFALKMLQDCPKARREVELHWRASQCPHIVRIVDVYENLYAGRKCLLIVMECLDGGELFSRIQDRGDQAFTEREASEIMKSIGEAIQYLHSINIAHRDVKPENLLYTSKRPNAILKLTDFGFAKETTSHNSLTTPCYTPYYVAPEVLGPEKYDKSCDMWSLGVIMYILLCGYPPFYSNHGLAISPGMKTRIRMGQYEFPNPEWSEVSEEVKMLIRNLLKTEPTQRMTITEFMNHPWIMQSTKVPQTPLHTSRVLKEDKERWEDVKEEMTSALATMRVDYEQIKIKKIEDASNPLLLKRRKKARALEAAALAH
Chain of Ribosomal protein S6 kinase alpha-5 (O75582 whole entry): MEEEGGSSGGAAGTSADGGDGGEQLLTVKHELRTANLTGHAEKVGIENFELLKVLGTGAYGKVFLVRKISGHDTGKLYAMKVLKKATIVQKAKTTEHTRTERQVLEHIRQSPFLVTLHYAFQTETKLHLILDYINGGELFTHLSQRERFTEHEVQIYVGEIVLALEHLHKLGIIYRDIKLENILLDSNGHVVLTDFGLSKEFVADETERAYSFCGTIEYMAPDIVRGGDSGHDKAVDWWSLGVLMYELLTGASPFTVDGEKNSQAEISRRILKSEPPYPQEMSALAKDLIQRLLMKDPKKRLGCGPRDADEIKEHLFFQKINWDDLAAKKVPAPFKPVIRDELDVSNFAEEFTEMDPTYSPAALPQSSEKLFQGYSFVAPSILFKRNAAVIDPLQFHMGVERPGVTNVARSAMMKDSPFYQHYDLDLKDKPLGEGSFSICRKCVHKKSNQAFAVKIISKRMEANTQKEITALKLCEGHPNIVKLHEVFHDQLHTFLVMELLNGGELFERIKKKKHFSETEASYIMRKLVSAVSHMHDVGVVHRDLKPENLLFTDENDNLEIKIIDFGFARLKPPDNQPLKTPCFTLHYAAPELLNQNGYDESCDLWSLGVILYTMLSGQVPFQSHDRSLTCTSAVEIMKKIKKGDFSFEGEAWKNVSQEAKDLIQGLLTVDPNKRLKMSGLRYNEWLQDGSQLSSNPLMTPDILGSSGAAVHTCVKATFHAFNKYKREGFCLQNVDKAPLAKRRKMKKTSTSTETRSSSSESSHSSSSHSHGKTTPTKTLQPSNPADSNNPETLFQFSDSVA
Chain of Insulin-like growth factor 1 receptor (P08069 31-736 limits assumed): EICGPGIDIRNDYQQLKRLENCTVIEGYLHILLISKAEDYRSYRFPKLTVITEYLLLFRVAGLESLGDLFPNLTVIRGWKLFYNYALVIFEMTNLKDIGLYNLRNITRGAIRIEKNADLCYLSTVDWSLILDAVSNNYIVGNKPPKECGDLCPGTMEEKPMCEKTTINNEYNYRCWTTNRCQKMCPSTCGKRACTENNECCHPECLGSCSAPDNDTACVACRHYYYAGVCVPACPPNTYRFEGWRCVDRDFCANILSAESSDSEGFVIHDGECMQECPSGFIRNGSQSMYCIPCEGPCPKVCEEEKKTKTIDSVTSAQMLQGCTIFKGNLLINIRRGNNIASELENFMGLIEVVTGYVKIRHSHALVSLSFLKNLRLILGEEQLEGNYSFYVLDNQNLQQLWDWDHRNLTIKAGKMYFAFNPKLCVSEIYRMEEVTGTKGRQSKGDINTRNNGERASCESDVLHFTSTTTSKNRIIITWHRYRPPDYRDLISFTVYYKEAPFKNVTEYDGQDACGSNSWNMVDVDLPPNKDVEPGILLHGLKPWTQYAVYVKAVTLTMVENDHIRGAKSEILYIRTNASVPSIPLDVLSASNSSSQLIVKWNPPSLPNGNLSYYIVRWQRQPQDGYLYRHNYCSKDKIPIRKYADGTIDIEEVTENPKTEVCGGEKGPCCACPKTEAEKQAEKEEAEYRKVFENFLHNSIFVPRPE
Chain of Insulin-like growth factor 1 receptor (P08069 741-1367 limits assumed): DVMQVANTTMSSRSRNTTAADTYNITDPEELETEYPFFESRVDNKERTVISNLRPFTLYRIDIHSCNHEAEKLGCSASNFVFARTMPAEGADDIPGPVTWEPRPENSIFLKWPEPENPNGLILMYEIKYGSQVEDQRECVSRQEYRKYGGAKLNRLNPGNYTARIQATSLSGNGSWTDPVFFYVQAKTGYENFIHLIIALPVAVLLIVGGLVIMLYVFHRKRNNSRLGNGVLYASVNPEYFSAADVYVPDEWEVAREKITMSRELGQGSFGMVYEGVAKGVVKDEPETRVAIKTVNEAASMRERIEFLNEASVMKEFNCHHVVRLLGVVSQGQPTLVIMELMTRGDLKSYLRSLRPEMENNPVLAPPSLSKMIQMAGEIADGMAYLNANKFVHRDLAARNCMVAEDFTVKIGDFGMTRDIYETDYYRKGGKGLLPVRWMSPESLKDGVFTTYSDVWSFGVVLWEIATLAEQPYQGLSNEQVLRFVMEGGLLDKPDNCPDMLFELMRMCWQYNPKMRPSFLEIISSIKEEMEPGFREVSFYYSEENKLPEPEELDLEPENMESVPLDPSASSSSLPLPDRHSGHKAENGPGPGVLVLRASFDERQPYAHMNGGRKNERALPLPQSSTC
Chain of Serine/threonine-protein kinase Nek2 (P51955 whole entry): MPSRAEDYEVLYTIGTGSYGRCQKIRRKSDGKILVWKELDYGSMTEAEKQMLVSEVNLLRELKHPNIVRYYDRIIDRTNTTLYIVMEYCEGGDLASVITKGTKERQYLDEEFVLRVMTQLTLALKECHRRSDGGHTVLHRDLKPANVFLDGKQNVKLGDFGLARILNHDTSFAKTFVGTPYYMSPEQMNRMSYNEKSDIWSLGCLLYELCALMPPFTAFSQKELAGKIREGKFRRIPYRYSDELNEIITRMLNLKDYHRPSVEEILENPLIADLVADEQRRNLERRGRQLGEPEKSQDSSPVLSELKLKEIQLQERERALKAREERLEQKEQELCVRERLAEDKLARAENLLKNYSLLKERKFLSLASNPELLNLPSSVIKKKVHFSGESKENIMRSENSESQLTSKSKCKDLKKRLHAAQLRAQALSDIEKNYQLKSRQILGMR
Chain of Wee1-like protein kinase (P30291 whole entry): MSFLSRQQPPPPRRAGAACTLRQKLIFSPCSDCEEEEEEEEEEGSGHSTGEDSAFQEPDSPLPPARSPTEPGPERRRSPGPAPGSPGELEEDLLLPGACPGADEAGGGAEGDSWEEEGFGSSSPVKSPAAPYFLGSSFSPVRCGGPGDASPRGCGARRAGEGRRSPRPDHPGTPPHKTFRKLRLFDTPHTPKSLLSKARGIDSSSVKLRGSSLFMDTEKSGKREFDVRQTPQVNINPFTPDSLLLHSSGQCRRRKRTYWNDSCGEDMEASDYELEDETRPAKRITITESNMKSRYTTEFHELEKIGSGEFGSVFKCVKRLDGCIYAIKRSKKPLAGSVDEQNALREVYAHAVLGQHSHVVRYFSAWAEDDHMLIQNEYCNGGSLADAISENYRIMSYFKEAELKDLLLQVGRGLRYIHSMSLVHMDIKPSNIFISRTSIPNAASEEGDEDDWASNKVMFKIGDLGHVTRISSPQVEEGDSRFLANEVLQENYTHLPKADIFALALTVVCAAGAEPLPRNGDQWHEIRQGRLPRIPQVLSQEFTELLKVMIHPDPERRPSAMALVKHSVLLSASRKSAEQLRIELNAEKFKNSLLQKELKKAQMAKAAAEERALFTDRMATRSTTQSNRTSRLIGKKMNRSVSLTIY
Chain of Receptor tyrosine-protein kinase erbB-2 (P70424 whole entry): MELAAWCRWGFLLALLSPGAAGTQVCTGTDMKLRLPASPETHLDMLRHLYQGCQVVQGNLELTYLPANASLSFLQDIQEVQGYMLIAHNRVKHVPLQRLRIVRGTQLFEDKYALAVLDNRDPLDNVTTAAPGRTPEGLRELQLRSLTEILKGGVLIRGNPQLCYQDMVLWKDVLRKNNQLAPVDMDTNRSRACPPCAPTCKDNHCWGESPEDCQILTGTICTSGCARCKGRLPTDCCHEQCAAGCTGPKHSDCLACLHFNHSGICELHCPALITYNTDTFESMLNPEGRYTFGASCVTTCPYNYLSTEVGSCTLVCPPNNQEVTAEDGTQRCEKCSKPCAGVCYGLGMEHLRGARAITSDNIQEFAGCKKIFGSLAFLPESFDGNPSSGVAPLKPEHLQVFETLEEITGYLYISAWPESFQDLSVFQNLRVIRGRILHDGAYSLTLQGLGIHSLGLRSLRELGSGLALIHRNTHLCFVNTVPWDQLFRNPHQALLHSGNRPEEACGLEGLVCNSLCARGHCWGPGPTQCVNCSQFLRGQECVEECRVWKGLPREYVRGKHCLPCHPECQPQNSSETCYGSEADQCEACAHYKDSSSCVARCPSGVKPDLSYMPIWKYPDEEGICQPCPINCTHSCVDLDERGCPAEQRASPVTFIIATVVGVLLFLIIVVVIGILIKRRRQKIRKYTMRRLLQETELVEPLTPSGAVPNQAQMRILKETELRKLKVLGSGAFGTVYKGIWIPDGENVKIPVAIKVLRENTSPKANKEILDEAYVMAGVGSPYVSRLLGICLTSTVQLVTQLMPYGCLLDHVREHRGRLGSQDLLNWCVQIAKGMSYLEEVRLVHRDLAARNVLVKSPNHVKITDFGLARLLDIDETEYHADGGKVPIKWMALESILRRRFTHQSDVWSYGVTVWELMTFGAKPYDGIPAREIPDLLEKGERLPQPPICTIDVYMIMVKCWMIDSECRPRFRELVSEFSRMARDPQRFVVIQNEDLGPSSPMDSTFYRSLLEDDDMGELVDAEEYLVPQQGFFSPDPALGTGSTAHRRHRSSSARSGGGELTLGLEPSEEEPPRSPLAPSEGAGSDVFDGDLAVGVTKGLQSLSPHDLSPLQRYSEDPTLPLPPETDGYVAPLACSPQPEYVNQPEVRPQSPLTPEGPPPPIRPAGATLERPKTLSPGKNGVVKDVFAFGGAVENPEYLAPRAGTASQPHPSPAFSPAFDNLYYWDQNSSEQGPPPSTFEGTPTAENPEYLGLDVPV

IC50 [1]: 0.041 µM
IC50 [2]: > 10 µM
IC50 [3]: > 10 µM
IC50 (Casein kinase I): > 10 µM
IC50 (Casein kinase 2): > 10 µM
IC50 [4]: > 10 µM
IC50 [5]: > 10 µM
IC50 [6]: > 10 µM
IC50 [7]: > 10 µM
IC50 [8]: > 10 µM
IC50 [9]: > 10 µM
IC50 [10]: > 10 µM
IC50 [11]: > 10 µM
IC50 [12]: > 10 µM
IC50 [13]: > 10 µM
IC50 [14]: > 10 µM
IC50 [15]: > 10 µM
IC50 [16]: > 10 µM
IC50 [17]: > 10 µM
IC50 [18]: > 10 µM
IC50 [19]: > 10 µM
IC50 [20]: > 10 µM
IC50 [21]: > 10 µM
IC50 [22]: > 10 µM
IC50 [23]: > 10 µM
IC50 [24]: > 10 µM
IC50 (Wee1-like protein kinase): > 10 µM
IC50 [25]: > 40 µM
IC50 [26]: > 40 µM
IC50 [27]: > 40 µM
IC50 [28]: > 40 µM
IC50 [29]: > 40 µM
IC50 [30]: > 40 µM
IC50 [31]: > 40 µM
IC50 [32]: > 40 µM
IC50 (A549): > 10 µM
IC50 (NCI-H441): 4 µM
IC50 (H322): > 10 µM
IC50 (Calu-3): 0.063 µM
IC50 (cells): 0.029 µM
Compound: COc1cc2ncnc(Nc3ccc(F)c(Cl)c3)c2cc1NC(=O)/C=C/CN1CCCCC1 [DACOMITINIB ANHYDROUS]
